The values below come from ChEMBL document CHEMBL5532679, “Discovery and Characterization of RGH-122, a Potent, Selective, and Orally Bioavailable V1a Receptor Antagonist” (J Med Chem, 2024).

Series [1] can be described thus: Half life in Wistar rat plasma at 3 mg/kg, iv by HPLC-MS/MS analysis.
A short description of series [2]: animal or person. The settings on record: Mus musculus, NMRI, po, read-out: INH.
Series [3] can be described thus: Efflux ratio of apparent permeability across basolateral to apical side over apical to basolateral side in vinblastine treated human Caco-2 cells at 1 to 10 uM incubated for 15 to 60 hrs by HPLC analysis. A general note: Caco-2 cells form a polarised layer with tight junctions and transporters.
Series [4] is described as follows: Half life in Wistar rat plasma at 3 mg/kg, po by HPLC-MS/MS analysis.
Series [5] in a line: in vitro. The settings on record: NMRI, mouse, microsomes.
Series [6] is described as follows: animal or person. The note with it: Mus musculus, NMRI, po, read-out: INH. This is another data set of the same source.
The nature of series [7]: in vitro. The settings on record: Wistar, rat, microsomes.
Series [8] can be described thus: in vivo. The note with it: Wistar, rat, po, 3 mg/kg.
Series [9] can be described thus: Half life in Wistar rat brain at 3 mg/kg, po by HPLC-MS/MS analysis.
Series [10] can be described thus: in vivo. The note with it: Wistar, rat, po, 3 mg/kg. This is another data set of the same source.
The nature of series [11]: in vivo. The note with it: Wistar, rat, plasma, po, 3 mg/kg.
Series [12] concerns the target Voltage-gated inwardly rectifying potassium channel KCNH2 (Homo sapiens, UniProt Q12809).
Description: Inhibition of hERG expressed in CHO cells at -80 mV holding potential incubated for 7 to 10 mins by automated patch clamp method
The nature of series [13]: in vivo. The settings on record: Wistar, rat, plasma, iv, 3 mg/kg.
Series [14] in a line: in vivo. The settings on record: Wistar, rat, plasma, iv, 3 mg/kg. The source holds these as a separate data set.
The nature of series [15]: in vivo. The settings on record: Wistar, rat, brain, po, 3 mg/kg.
Series [16] in a line: in vivo. The note with it: Wistar, rat, brain, po, 3 mg/kg. This is another data set of the same source.
A short description of series [17]: in vivo. The note with it: Wistar, rat, iv, 3 mg/kg.
For series [18] the following is noted: human, microsomes, 1 µM.
Series [19] can be described thus: Apparent permeability of compound across apical to basal side in vinblastine treated human Caco-2 cells at 1 to 10 uM incubated for 15 to 60 mins by HPLC analysis.
Series [20] in a line: in vivo. The settings on record: Wistar, rat, brain, po, 3 mg/kg. The source holds these as a separate data set.
Series [21] in a line: animal or person. The note with it: Rattus norvegicus, po, read-out: INH.
Series [22] deals with T1, Vasopressin V1a receptor (Homo sapiens, UniProt P37288).
Description: Displacement of [3H]vasopressin from human V1A receptor assessed as inhibition constant by Cheng-Prusoff equation analysis
Series [23] in a line: in vitro. The settings on record: CD-1, mouse, liver microsomes. For orientation: Liver microsomes are vesicles of endoplasmic reticulum, rich in cytochrome P450 enzymes.
The target of series [24] is T1, Vasopressin V1a receptor. The source holds these as a separate data set.
Description: Antagonist activity at human V1A receptor expressed in human 1321N1 cells assessed as Ca2+ mobilization incubated for 15 mins by FLIPR calcium 5 assay
The target in a further series is Cytochrome P450 3A4 (Homo sapiens, UniProt P08684). In words: Inhibition of CYP3A4 (unknown origin). Format: ADME.
The target of another series is Cytochrome P450 2C9 (Homo sapiens, UniProt P11712). In words: Inhibition of CYP2C9 (unknown origin). Format: ADME.
In the next series the target is T2, Cytochrome P450 2C8 (Homo sapiens, UniProt P10632).
T2 sequence (P10632 whole entry): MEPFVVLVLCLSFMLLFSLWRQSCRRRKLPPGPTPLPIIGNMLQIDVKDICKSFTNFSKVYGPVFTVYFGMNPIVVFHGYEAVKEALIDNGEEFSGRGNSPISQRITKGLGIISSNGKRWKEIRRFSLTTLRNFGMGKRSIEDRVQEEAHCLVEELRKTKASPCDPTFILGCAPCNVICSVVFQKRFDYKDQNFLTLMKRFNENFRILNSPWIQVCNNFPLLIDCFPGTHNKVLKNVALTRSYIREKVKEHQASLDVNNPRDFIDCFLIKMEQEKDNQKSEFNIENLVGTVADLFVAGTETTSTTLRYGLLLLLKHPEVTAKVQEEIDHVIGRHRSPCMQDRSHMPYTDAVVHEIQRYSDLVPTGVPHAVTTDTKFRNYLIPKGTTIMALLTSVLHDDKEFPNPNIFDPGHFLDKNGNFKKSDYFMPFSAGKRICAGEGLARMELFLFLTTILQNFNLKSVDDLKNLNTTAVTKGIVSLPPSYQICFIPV
In words: Inhibition of CYP2C8 (unknown origin). Format: ADME.

The target of the next series is Cytochrome P450 2D6 (Homo sapiens, UniProt P10635). In words: Inhibition of CYP2D6 (unknown origin). Format: ADME.
For another series, the target named is T3, Cytochrome P450 1A2 (Homo sapiens, UniProt P05177).
T3 sequence (P05177 whole entry): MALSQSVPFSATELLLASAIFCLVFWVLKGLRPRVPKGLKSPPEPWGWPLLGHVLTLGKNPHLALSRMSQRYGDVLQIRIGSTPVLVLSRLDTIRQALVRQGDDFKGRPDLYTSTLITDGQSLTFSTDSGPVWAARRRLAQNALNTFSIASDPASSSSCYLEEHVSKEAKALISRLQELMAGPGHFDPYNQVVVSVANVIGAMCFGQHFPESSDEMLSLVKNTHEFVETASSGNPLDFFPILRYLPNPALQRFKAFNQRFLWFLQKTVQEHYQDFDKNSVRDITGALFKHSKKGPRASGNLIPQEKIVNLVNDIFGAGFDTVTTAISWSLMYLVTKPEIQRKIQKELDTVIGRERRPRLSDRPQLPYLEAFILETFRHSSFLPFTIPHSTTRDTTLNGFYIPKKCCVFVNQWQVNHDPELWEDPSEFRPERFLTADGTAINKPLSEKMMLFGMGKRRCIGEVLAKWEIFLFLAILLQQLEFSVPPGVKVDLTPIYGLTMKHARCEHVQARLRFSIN
The series is described as follows: Inhibition of CYP1A2 (unknown origin). In kind it is ADME.

A further series deals with T4, Cytochrome P450 2B6 (Homo sapiens, UniProt P20813).
T4 sequence (P20813 whole entry): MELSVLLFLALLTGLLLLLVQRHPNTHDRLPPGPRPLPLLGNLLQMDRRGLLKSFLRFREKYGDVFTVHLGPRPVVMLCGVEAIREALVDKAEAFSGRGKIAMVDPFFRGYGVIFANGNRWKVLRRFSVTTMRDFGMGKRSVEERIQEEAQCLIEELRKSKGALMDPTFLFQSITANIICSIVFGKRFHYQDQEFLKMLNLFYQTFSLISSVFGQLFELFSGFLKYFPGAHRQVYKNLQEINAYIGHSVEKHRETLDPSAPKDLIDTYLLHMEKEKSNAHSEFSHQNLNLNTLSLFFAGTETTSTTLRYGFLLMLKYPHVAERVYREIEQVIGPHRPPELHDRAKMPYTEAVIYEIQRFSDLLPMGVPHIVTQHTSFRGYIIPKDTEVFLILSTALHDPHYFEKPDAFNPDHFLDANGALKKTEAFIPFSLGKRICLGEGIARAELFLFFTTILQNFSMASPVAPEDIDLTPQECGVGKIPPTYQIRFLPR
In words: Inhibition of CYP2B6 (unknown origin). In kind it is ADME.

A value given as a limit tells only on which side of the number the result lay.

Broadly, the half-life is how long it takes for the measured level to halve. Read a high half-life as slow decline. As a reminder, the efflux ratio is the permeability from basolateral to apical divided by that in the opposite direction, in the common usage. By microsomal CLint is commonly meant a measure of how fast metabolising enzymes remove a compound, apart from limits set by blood flow. A word on the AUC(0-t): it is the area under the concentration-time curve up to a stated or last time point. A higher AUC(0-t) goes with high exposure. Usually Cmax stands for the maximum level reached in the sampled fluid or tissue. A word on the IC50: it is the midpoint of a concentration-inhibition curve. A low value points to inhibition by little substance. As a reminder, the Tmax is the time from dosing to the highest level. The Papp A→B is how fast a substance crosses the layer from the apical side. As a reminder, the Ki is a measure of affinity in units of concentration, obtained from inhibition or displacement.

T1 sequence (P37288 whole entry): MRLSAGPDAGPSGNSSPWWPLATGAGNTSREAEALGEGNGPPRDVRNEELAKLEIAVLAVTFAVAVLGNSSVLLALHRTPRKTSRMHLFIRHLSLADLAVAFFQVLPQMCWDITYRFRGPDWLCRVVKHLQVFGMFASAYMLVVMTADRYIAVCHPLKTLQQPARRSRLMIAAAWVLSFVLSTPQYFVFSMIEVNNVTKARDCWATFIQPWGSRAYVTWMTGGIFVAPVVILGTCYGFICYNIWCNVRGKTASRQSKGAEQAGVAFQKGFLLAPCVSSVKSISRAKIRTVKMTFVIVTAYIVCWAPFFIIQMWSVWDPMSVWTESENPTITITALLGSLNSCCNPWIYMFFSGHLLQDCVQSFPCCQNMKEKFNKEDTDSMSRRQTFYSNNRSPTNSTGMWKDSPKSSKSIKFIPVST
Voltage-gated inwardly rectifying potassium channel KCNH2, sequence (Q12809 whole entry): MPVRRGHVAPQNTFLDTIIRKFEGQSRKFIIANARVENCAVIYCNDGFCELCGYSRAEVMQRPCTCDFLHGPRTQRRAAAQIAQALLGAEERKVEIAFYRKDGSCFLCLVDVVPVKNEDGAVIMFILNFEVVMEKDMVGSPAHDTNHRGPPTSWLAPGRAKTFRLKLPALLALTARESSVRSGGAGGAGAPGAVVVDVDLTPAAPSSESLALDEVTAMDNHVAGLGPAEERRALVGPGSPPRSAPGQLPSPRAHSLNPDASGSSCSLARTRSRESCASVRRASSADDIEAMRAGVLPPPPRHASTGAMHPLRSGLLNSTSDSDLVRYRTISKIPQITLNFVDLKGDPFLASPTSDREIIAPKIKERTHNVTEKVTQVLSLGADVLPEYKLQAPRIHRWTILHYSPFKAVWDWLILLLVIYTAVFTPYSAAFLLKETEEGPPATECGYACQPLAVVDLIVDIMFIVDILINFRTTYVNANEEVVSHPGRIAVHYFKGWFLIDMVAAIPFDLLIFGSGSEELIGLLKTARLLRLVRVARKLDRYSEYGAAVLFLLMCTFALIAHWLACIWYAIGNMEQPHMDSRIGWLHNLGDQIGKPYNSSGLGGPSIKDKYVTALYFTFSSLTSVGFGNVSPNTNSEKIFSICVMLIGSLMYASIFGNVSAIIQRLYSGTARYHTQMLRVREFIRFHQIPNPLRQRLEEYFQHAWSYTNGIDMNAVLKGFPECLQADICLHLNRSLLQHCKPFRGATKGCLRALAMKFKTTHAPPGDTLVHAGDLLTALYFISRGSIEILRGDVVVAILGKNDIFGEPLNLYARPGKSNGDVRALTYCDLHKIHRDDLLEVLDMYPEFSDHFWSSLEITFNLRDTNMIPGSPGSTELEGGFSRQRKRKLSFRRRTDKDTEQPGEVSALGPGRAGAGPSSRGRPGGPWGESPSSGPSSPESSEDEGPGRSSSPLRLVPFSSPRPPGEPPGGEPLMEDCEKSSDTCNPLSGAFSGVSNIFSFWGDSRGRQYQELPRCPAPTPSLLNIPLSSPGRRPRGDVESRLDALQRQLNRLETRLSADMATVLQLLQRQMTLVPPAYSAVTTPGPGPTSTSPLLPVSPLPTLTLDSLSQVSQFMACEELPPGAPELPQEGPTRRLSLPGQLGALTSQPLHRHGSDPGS
Cytochrome P450 2C9, sequence (P11712 whole entry): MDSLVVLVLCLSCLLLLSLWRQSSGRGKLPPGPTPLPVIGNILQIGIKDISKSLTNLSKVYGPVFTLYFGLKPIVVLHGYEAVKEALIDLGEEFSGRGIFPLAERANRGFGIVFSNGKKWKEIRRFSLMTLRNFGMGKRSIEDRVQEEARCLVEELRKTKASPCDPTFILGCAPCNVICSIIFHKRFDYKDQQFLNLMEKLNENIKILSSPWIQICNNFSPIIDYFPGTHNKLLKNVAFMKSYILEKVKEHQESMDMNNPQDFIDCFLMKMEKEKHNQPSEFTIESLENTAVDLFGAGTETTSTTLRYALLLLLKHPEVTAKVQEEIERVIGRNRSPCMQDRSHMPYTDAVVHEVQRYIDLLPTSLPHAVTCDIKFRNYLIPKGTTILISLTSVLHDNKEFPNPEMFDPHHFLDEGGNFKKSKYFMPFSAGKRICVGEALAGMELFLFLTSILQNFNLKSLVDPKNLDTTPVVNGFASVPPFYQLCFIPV
Cytochrome P450 2D6, sequence (P10635 whole entry): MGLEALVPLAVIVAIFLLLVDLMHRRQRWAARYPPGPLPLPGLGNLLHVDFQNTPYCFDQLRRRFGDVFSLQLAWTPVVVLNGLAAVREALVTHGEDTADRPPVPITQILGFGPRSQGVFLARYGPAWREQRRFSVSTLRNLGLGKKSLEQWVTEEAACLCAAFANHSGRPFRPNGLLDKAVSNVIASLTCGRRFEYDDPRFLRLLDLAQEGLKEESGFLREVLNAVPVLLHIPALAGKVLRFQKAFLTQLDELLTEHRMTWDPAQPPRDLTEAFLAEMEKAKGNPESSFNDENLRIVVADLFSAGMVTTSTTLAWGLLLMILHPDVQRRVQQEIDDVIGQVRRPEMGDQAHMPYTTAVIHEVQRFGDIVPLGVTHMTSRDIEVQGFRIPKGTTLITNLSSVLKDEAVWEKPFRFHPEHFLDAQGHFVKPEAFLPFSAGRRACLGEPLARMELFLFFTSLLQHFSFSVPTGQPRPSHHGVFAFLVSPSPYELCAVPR
Cytochrome P450 3A4, sequence (P08684 whole entry): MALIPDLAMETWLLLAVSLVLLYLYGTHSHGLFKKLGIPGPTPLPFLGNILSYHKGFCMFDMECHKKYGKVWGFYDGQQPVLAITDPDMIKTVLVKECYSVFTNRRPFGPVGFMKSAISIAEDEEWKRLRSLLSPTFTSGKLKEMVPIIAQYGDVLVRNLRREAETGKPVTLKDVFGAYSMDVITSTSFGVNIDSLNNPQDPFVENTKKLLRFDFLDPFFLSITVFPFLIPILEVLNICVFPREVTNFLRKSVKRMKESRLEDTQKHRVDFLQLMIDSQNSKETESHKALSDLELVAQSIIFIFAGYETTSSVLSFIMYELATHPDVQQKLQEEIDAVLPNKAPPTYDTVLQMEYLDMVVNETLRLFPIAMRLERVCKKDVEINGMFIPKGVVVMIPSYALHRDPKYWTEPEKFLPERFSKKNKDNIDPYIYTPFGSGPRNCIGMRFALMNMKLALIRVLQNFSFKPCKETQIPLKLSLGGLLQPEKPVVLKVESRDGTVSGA

`OC1Cc2cc(Cl)ccc2-n2c(nnc2[C@H]2CC[C@H](Oc3ccccn3)CC2)C1` (mixture of isomers): the half-life in series [1] is 1 h; in series [4], 1.5 h; in series [9] it was 1.43 h. In addition, the inhibition in vivo at 10 mg/kg in “animal or person [2]” was 91%. For the same molecule, the efflux ratio at 10 µM in [3] was determined as 5.9. In addition, the microsomal CLint at 1 µM stood at 6 µL/min/mg in “in vitro [5]” and 17 µL/min/mg in the series “in vitro [7]”. Moreover, the inhibition in vivo at 3 mg/kg in the series “animal or person [6]” was found to be 87%. The values for the AUC(0-t) in “in vivo [8]”, in the series “in vivo [10]” and in “in vivo [17]” were 0.481 µM·h, 0.897 µM·h and 0.876 µM·h, respectively. The Cmax in the series “in vivo [11]” was 403 nM; in the series “in vivo [14]” it was 469 nM; in “in vivo [16]” it was 190 nM. The molecule also registered a half-maximal inhibitory concentration (IC50) in [12] of more than 30 µM. Also, the Tmax in “in vivo [13]” is 0.3 h; in the series “in vivo [20]” it was 0.5 h. In addition, in “in vivo [15]”, the Kp came out at 0.54. This molecule displayed a CLH in series [18] of 0.58 mL/day/kg. Besides, the Papp A→B at 10 µM in series [19] stood at 20 ×10⁻⁶ cm/s.

`CO[C@@H]1Cc2cc(Cl)ccc2-n2c(nnc2[C@H]2CC[C@H](Oc3ccccn3)CC2)C1`: the inhibition in vivo at 10 mg/kg is 67% in the series “animal or person [2]” and more than 60% in “animal or person [21]”. Besides, the efflux ratio at 10 µM in series [3] came to 0.9. The inhibition in vivo at 3 mg/kg in “animal or person [6]” amounted to 73%. In addition, the figures for the microsomal CLint at 1 µM in the series “in vitro [7]” and in the series “in vitro [23]” were 41 µL/min/mg and 25 µL/min/mg, respectively. In addition, the 50% inhibitory concentration (IC50) was 13.8 µM in [12] and 0.0006 µM against Vasopressin V1a receptor [24]. Affinity at Vasopressin V1a receptor [22] was put at a Ki of 0.0002 µM. Besides, the Papp A→B at 10 µM in [19] was determined as 38 ×10⁻⁶ cm/s.

As to `Clc1ccc2c(c1)CC1(Cc3nnc([C@H]4CC[C@H](Oc5ccccn5)CC4)n3-2)OCCO1`, the IC50 against Cytochrome P450 3A4, against Cytochrome P450 2C9, against Cytochrome P450 2C8, against Cytochrome P450 2D6, against Cytochrome P450 1A2 and at Cytochrome P450 2B6 was more than 10 µM throughout.
